# Entries after “also recorded” stand apart in the source; their conditions may differ.
# Columns and labels:
# [1] = system: cells of cultured nerve segments; test: Dissociation culture (squash preparations) of nerve segments; type: cell-based, rat; conditions: nerve segments cultured 2 days with and without GM6001
# [2] = system: MMP gelatinolytic activity; test: In situ zymography of cultured nerve explants; type: biochemical, rat; conditions: nerves cultured 2-day, 2% serum in presence of GM6001
# Protocol: In situ zymography for nerve predegeneration experiments. Cryosections (10 μm) of unfixed normal and cultured nerves were mounted on slides and overlaid with reaction buffer (50 mM Tris-HCl, 150 mM NaCl, 5 mM CaCl2, 0.2 mM sodium azide, pH 7.6) containing 20 μg/ml of intramolecularly quenched, fluorescein-labeled gelatin substrate (MOLECULAR PROBES INC., Eugene, Oreg.) (Oh et al., 1999). In the control condition, the MMP inhibitor EDTA (30 mM) was included in the reaction buffer. After incubation for 24 h at 37° C., the sections were rinsed with PBS and fixed with 4% paraformaldehyde in phosphate buffer. The sections were rinsed with water and mounted using Citifluor. Fluorescein-gelatin peptides generated by gelatinolytic activity in the tissue sections were observed and photographed by epifluorescence microscopy.
# The activity of MMPs is regulated by gene transcription, proenzyme activation and by the action of tissue inhibitors of metalloproteinases. The net gelatinolytic activity in nerve segments by in situ zymography was examined. Tissue sections were overlaid with quenched, fluorescein-gelatin, which is converted to fluorescent peptides by gelatinolytic activity within tissues. Constitutive gelatinolytic activity was detected in normal nerve mostly associated with Schwann cells aligned along the endoneurial basal lamina (as shown in FIGS. 17A and 17B). […]
# [3] = system: embryonic chick DRG neurons; test: Cryoculture assay of nerve explant cultures (predegeneration); type: cell-based; conditions: 2-day, 2% serum culture with GM6001 (50 μM); 68% without
# Text: Nerve explant culture for predegeneration experiments. Adult (180-200 gm) female SPRAGUE DAWLEY rats (HARLAN, Indianapolis, Ind.) were used as nerve donors and graft recipients. This project was reviewed and approved by the Institutional Animal Care and Use Committee. Donor rats were deeply anesthetized with isofluorane and decapitated. Sciatic nerves were exposed through a gluteal muscle-splitting incision and isolated free of underlying fascia. A 15-mm nerve segment was excised rostral to the bifurcation into common peroneal and tibial nerves. The segments were rinsed with sterile Ringer's solution and stabilized by pinning the ends to a thin plastic support. […]
# Cryoculture bioassay. […] Neurite lengths were measured directly using IMAGE-PRO PLUS software (MEDIA CYBERNETICS, Silver Springs, Md.). At least 250 neurons with neurites greater than one cell body (˜15 μm) were scored for each condition in each experiment.
# Freshly excised (cellular) rat sciatic nerve segments were cultured for up to 7 days in medium containing 0, 2 and 10% fetal bovine serum. Control (uncultured) and cultured nerves were cryosectioned and their neurite-promoting activity was assessed by cryoculture assay. […]
structure (smiles),measurement,setting,value
CNC(=O)[C@H](Cc1c[nH]c2ccccc12)NC(=O)[C@@H](CC(=O)NO)CC(C)C [GM6001],cell viability (cell outgrowth),[1],no loss of cell viability
same,gelatinolytic activity in treated nerve explants,[2],nearly undetectable; also recorded: markedly decreased
same,increase in neurite length over control nerves for nerves cultured in presence of inhibitor,[3],14%

# Reference: patent US8986733B2, “Materials and methods for nerve repair” (University of Florida Research Foundation, Inc., priority 2001, dated 2015)
